Measurements published in EP1339725B1, “DNA METHYL TRANSFERASE INHIBITORS” (priority 2000, dated 2002).

Tests used:
Brucella abortus CcrM = Brucella abortus CcrM (Brucella abortus, UniProt Q2YMK2); format: biochemical
[1] = system: Caulobacter crescentus (CB15N); assay: Caulobacter crescentus cell growth assay; format: cell-based; details: PYE media with 200 µg/mL ampicillin, 30°C, growth monitored at 630 nm up to 22 hours
[2] = system: Bacillus subtilis (ATCC #33234); assay: Bacillus subtilis cell growth assay; format: cell-based; details: LB media without antibiotics, 37°C, growth monitored up to 7.5 hours

Chain of Brucella abortus CcrM (Q2YMK2 whole entry, looked up): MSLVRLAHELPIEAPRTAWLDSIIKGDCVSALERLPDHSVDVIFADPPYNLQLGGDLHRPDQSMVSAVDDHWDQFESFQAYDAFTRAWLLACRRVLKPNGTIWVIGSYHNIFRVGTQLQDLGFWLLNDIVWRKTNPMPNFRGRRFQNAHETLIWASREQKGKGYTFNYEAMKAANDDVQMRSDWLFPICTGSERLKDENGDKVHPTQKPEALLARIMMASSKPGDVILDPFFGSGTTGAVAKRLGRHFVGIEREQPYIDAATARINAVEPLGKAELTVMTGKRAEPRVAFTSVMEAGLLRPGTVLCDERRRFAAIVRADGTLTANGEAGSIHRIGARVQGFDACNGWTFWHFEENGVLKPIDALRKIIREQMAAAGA

Fc1ccc(B(Oc2cccc3cccnc23)c2ccc(F)cc2)cc1 [Compound 11ii, Di-(4-fluorophenyl)borinic acid 8-hydroxyquinoline ester]
% reaction Brucella abortus CcrM Activity (Brucella abortus CcrM): 61%

c1ccc(B(OCc2ccccn2)c2ccccc2)cc1 [Compound 16i, Diphenylborinic acid pyridine-2-methanol]
% reaction Brucella abortus CcrM Activity (Brucella abortus CcrM): 93%

NCCOB(c1ccc(F)cc1)c1ccc(F)cc1 [Compound 19ii, Di-(4-fluorophenyl)borinic acid ethanolamine ester]
% reaction Brucella abortus CcrM Activity (Brucella abortus CcrM): 8%

c1cnc2c(OB(c3ccc4c(c3)OCO4)c3ccc4c(c3)OCO4)cccc2c1 [Compound 11vi, Di-(3,4-methylenedioxyphenyl)borinic acid 8-hydroxyquinoline ester]
% reaction Brucella abortus CcrM Activity (Brucella abortus CcrM): 42%

c1csc(B(Oc2cccc3cccnc23)c2cccs2)c1 [Compound 11viii, Di-(2-thienyl)borinic acid 8-hydroxyquinoline ester]
% reaction Brucella abortus CcrM Activity (Brucella abortus CcrM): 74%

O=[N+]([O-])c1ccc(OB(c2ccc3c(c2)OCO3)c2ccc3c(c2)OCO3)c2ncccc12 [Compound 14vi, Di-(3,4-methylenedioxyphenyl)borinic acid 8-hydroxy-5-nitroquinoline ester]
% reaction Brucella abortus CcrM Activity (Brucella abortus CcrM): 21%

Clc1ccc(B(Oc2cccc3cccnc23)c2ccc(Cl)cc2)cc1 [Compound 11iii, Di-(4-chlorophenyl)borinic acid 8-hydroxyquinoline ester]
% reaction Brucella abortus CcrM Activity (Brucella abortus CcrM): 61%

Cc1ccc2cccc(OB(c3ccc(F)cc3)c3ccc(F)cc3)c2n1 [Compound 12ii, Di-(p-fluorophenyl)borinic acid 8-hydroxyquinaldine ester]
% reaction Brucella abortus CcrM Activity (Brucella abortus CcrM): 17%

Clc1ccc(B(Oc2ccc(Cl)c3cccnc23)c2ccc(Cl)cc2)cc1 [Compound 13iii, Di-(p-chlorophenyl)borinic acid 5-chloro-8-hydroxyquinaline ester]
% reaction Brucella abortus CcrM Activity (Brucella abortus CcrM): 81%

Diphenylborinic acid 2-amino-1-phenylpropanol [Compound 17i]
IC50 [1]: > 100 µM | IC50 [2]: > 100 µM | % reaction Brucella abortus CcrM Activity (Brucella abortus CcrM): 114%

c1ccc(B(OC[C@@H]2CCCN2)c2ccccc2)cc1 [Compound 18i, Diphenylborinic acid (S)-(+)-pyrrolidine-2-methanol]
IC50 [1]: > 100 µM | IC50 [2]: > 100 µM | % reaction Brucella abortus CcrM Activity (Brucella abortus CcrM): 81%

Fc1ccc(B(Oc2ccc(Cl)c3cccnc23)c2ccc(F)cc2)cc1 [Compound 13ii, Di-(p-fluorophenyl)borinic acid 5-chloro-8-hydroxyquinaline ester]
% reaction Brucella abortus CcrM Activity (Brucella abortus CcrM): 55%

Cc1ccc2cccc(OB(c3ccc(Cl)cc3)c3ccc(Cl)cc3)c2n1 [Compound 12iii, Di-(p-chlorophenyl)borinic acid 8-hydroxyquinaldine ester]
% reaction Brucella abortus CcrM Activity (Brucella abortus CcrM): 40%

COc1ccc(B(Oc2cccc3ccc(C)nc23)c2ccc(OC)cc2)cc1 [Compound 12vii, Di-(4-methoxyphenyl)borinic acid 8-hydroxyquinaldine ester]
% reaction Brucella abortus CcrM Activity (Brucella abortus CcrM): 56%
